Results as given in patent publication US8106055B2, “Substituted amide compounds” (Gruenenthal GmbH, priority 2007, dated 2012).

What was measured:
[1] = target: T1, human bradykinin 1 receptor (B1R) (Homo sapiens, UniProt P46663); assay: Functional investigation on the human bradykinin 1 receptor (B1R), Ca2+ FLIPR assay in CHO K1 hB1R cells; format: cell-based; details: CHO-K1, B1R antagonism human; test substance 10 μM; Ca2+ FLIPR, CHO K1 hB1R cells; read-out: B1R Ant. h [10 μM] % Inhibition
T1 construct: expressed in transfected cells; host or cells: CHO K1 cells
T1 sequence (P46663 1-353): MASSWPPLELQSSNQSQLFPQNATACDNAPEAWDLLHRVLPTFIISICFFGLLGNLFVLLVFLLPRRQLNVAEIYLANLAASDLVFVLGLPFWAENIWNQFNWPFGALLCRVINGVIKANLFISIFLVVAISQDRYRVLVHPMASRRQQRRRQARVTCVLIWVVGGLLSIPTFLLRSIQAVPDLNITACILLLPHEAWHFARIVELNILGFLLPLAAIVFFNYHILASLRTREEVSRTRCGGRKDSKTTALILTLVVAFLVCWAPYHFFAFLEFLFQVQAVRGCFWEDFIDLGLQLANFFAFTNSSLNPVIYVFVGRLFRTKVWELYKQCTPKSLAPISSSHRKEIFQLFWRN
Outline: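 Cells were dye-loaded with Fluo-4 plus probenecid, then test substances added and Ca2+ influx compared with agonist control for % activation. After 10-20 min, EC80 agonist (Lys-Des-Arg9-bradykinin human; Des-Arg9-bradykinin rat) was applied; suppression gave % inhibition and IC50 values.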

[2] = target: T2, serotonin (5-HT) reuptake (Rattus norvegicus, UniProt P31652); assay: Inhibition of serotonin (5HT) reuptake in synaptosomes from rat brain; format: biochemical; details: test concentration of 10 μM; read-out: 5-HT (inhibition of reuptake of serotonin, % inhibition)
T2 construct: synaptosomes are freshly isolated from areas of the rat brain; from tissue; host or cells: rat brain synaptosomes (P2 fraction)
Outline: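 Freshly isolated rat brain synaptosomes (P2 fraction) used for 5-HT reuptake. Test compound at 10 μM, activity given as % inhibition.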

T2 sequence (P31652 whole entry): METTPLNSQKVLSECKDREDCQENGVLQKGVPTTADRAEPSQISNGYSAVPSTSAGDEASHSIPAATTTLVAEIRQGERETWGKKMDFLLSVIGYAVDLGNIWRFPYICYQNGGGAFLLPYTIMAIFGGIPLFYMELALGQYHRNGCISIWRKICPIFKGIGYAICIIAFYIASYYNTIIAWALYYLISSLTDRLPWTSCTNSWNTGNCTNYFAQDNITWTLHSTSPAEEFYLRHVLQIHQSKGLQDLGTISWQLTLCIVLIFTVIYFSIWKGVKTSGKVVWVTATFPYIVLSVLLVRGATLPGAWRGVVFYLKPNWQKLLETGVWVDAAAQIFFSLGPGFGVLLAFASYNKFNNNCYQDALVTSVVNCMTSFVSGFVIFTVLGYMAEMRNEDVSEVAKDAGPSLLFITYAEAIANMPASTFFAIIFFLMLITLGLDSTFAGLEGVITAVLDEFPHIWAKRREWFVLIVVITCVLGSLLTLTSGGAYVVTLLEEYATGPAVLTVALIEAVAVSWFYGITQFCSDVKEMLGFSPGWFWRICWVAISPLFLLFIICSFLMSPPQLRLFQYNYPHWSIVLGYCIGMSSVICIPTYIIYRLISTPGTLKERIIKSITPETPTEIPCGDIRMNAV

Row | Compound | inhibition at 10 µM [1] [%] | inhibition at 10 µM [2] [%]
1 | CN(C)C(c1cccc(F)c1)C1CCC(CCNC(=O)COCC2CCCCN2S(=O)(=O)c2ccc(Cl)c(Cl)c2)CC1 (stereo not drawn) [Example 147, 2-((1-(3,4-dichlorophenylsulfonyl)piperidin-2-yl)methoxy)-N-(2-(4-((dimethylamino)(3-fluorophenyl)methyl)cyclohexyl)ethyl)acetamide] | 52 | 96
2 | COc1cc(C)c(S(=O)(=O)N(CCOCC(=O)NCC2CCC(C(c3ccccc3)N(C)C)CC2)Cc2ccccc2)c(C)c1 (stereo not drawn) [Example 148, 2-(2-(N-benzyl-4-methoxy-2,6-dimethylphenylsulfonamido)ethoxy)-N-((4-((dimethylamino)(phenyl)methyl)cyclohexyl)methyl)acetamide] | 92 | 95
3 | COc1cc(C)c(S(=O)(=O)N(CCOCC(=O)NCCC2CCC(C(c3cccs3)N(C)C)CC2)Cc2ccccc2)c(C)c1 (stereo not drawn) [Example 149, 2-(2-(N-benzyl-4-methoxy-2,6-dimethylphenylsulfonamido)ethoxy)-N-(2-(4-((dimethylamino) (thiophen-2-yl)methyl)cyclohexyl)ethyl)acetamide] | 72 | 91
4 | COc1ccc(S(=O)(=O)N2CCCCC2COCC(=O)NCC2CCC(C(c3ccccc3)N(C)C)CC2)cc1OC (stereo not drawn) [Example 150, 2-((1-(3,4-Dimethoxyphenylsulfonyl)piperidin-2-yl)methoxy)-N-((4-((dimethylamino)(phenyl)methyl)cyclohexyl)methyl)acetamide] | 4 | 94
5 | COc1ccc(S(=O)(=O)N2CCCCC2COCC(=O)NCC2CCC(C(c3cccc(F)c3)N(C)C)CC2)c(OC)c1 (stereo not drawn) [Example 151, 2-((1-(2,4-dimethoxyphenylsulfonyl)piperidin-2-yl)methoxy)-N-((4-((dimethylamino)(3-fluorophenyl)methyl)cyclohexyl)methyl)acetamide] | 24 | 87
6 | CN(C)C(c1cccs1)C1CCC(NC(=O)COCCN(C)S(=O)(=O)c2cccc(C(F)(F)F)c2)CC1 (stereo not drawn) [Example 152, N-(4-((dimethylamino)(thiophen-2-yl)methyl)cyclohexyl)-2-(2-(N-methyl-3-(trifluoromethyl)phenylsulfonamido)ethoxy)acetamide] | 16 | 87
7 | COc1ccc(S(=O)(=O)N2CCC(OCC(=O)NC3CCC(C(c4cccs4)N(C)C)CC3)C2)cc1OC (stereo not drawn) [Example 155, 2-(1-(3,4-dimethoxyphenylsulfonyl)pyrrolidin-3-yloxy)-N-(4-((dimethylamino)(thiophen-2-yl)methyl)cyclohexyl)acetamide] | -8 | 87
8 | Cc1ccc(S(=O)(=O)N2CCC(OCC(=O)NC3CCC(C(c4cccs4)N(C)C)CC3)C2)cc1 (stereo not drawn) [Example 156, N-(4-((dimethylamino)(thiophen-2-yl)methyl)cyclohexyl)-2-(1-tosylpyrrolidin-3-yloxy)acetamide] | 5 | 87
9 | Cc1ccc(S(=O)(=O)N(C)CCOCC(=O)NCC2CCC(C(c3ccccc3)N(C)C)CC2)cc1 (stereo not drawn) [Example 157, N-((4-((dimethylamino) (phenyl)methyl)cyclohexyl)methyl)-2-(2-(N,4-dimethylphenylsulfonamido)ethoxy)acetamide] | 5 | 88
10 | CN(C)C(c1cccc(F)c1)C1CCC(CNC(=O)COCCN(C)S(=O)(=O)c2ccc(Cl)cc2)CC1 (stereo not drawn) [Example 158, 2-(2-(4-chloro-N-methylphenylsulfonamido)ethoxy)-N-((4-((dimethylamino)(3-fluorophenyl)methyl)cyclohexyl)methyl)acetamide] | 20 | 91
11 | CN(C)C(c1cccs1)C1CCC(NC(=O)COCCN(Cc2ccccc2)S(=O)(=O)c2ccccc2)CC1 (stereo not drawn) [Example 161, 2-(2-(N-benzylphenylsulfonamido)ethoxy)-N-(4-((dimethylamino)(thiophen-2-yl)methyl)cyclohexyl)acetamide] | 1 | 94
12 | COc1ccc(S(=O)(=O)N2CCCC2COCC(=O)NC2CCC(C(c3cccs3)N(C)C)CC2)cc1 (stereo not drawn) [Example 162, N-(4-((dimethylamino)(thiophen-2-yl)methyl)cyclohexyl)-2-((1-(4-methoxyphenylsulfonyl)pyrrolidin-2-yl)methoxy)acetamide] | -5 | 81
13 | COc1ccc(S(=O)(=O)N2Cc3ccccc3CC2COCC(=O)NCC2CCC(C(c3cccc(F)c3)N(C)C)CC2)cc1 (stereo not drawn) [Example 163, N-((4-((dimethylamino)(3-fluorophenyl)methyl)cyclohexyl)methyl)-2-((2-(4-methoxyphenylsulfonyl)-1,2,3,4-tetrahydroisoquinolin-3-yl)methoxy)acetamide] | 40 | 96
14 | CN(C)C(c1cccc(F)c1)C1CCC(CNC(=O)COC2CCCCC2N(C)S(=O)(=O)c2ccc(Cl)c(Cl)c2)CC1 (stereo not drawn) [Example 164, 2-(2-(3,4-dichloro-N-methylphenylsulfonamido)cyclohexyloxy)-N-((4-((dimethylamino)(3-fluorophenyl)methyl)cyclohexyl)methyl)acetamide] | 14 | 90
15 | COc1cc(C)c(S(=O)(=O)N2CCC(OCC(=O)NC3CCC(C(c4ccccc4)N(C)C)CC3)C2)c(C)c1 (stereo not drawn) [Example 165, N-(4-((dimethylamino)(phenyl)methyl)cyclohexyl)-2-(1-(4-methoxy-2,6-dimethylphenylsulfonyl)pyrrolidin-3-yloxy)acetamide] | 98 | 20
16 | Cc1ccc(S(=O)(=O)N2CCC(OCC(=O)NC3CCC(C(c4cccc(F)c4)N(C)C)CC3)C2)cc1 (stereo not drawn) [Example 167, N-(4-((dimethylamino)(3-fluorophenyl)methyl)cyclohexyl)-2-(1-tosylpyrrolidin-3-yloxy)acetamide] | -12 | 86
17 | COc1ccc(S(=O)(=O)N(C)CCOCC(=O)NCC2CCC(C(c3ccccc3)N(C)C)CC2)cc1OC (stereo not drawn) [Example 169, 2-(2-(3,4-dimethoxy-N-methylphenylsulfonamido)ethoxy)-N-((4-((dimethylamino)(phenyl)methyl)cyclohexyl)methyl)acetamide] | -4 | 94
18 | CN(C)C(c1cccc(F)c1)C1CCC(CNC(=O)COC2CCN(S(=O)(=O)c3cccc(C(F)(F)F)c3)C2)CC1 (stereo not drawn) [Example 170, N-((4-((dimethylamino)(3-fluorophenyl)methyl)cyclohexyl)methyl)-2-(1-(3-(trifluoromethyl)phenylsulfonyl)pyrrolidin-3-yloxy)acetamide] | 8 | 89
19 | CN(C)C(c1cccc(F)c1)C1CCC(NC(=O)COCCN(C)S(=O)(=O)c2c(Cl)cccc2Cl)CC1 (stereo not drawn) [Example 171, 2-(2-(2,6-dichloro-N-methylphenylsulfonamido)ethoxy)-N-(4-((dimethylamino)(3-fluorophenyl)methyl)cyclohexyl)acetamide] | 68 | 78
20 | CN(C)C(c1cccc(F)c1)C1CCC(NC(=O)COC2CCN(S(=O)(=O)c3ccc(F)cc3)C2)CC1 (stereo not drawn) [Example 172, N-(4-((dimethylamino)(3-fluorophenyl)methyl)cyclohexyl)-2-(1-(4-fluorophenylsulfonyl)pyrrolidin-3-yloxy)acetamide] | -12 | 79
21 | COc1cc(C)c(S(=O)(=O)N2CCC(OCC(=O)NCC3CCC(C(c4ccccc4)N(C)C)CC3)C2)c(C)c1 (stereo not drawn) [Example 173, N-((4-((dimethylamino)(phenyl)methyl)cyclohexyl)methyl)-2-(1-(4-methoxy-2,6-dimethylphenylsulfonyl)pyrrolidin-3-yloxy)acetamide] | 94 | 95
22 | CN(C)C(c1cccc(F)c1)C1CCC(CCNC(=O)COCCN(C)S(=O)(=O)c2c(Cl)cc(Cl)cc2Cl)CC1 (stereo not drawn) [Example 174, N-(2-(4-((dimethylamino)(3-fluorophenyl)methyl)cyclohexyl)ethyl)-2-(2-(2,4,6-trichloro-N-methylphenylsulfonamido)ethoxy)acetamide] | 103 | 97
23 | CN(C)C(c1cccc(F)c1)C1CCC(NC(=O)COCCN(Cc2ccccc2)S(=O)(=O)c2ccccc2)CC1 (stereo not drawn) [Example 175, 2-(2-(N-benzylphenylsulfonamido)ethoxy)-N-(4-((dimethylamino)(3-fluorophenyl)methyl)cyclohexyl)acetamide] | -6 | 97
24 | CCN(CCOCC(=O)NC1CCC(C(c2cccc(F)c2)N(C)C)CC1)S(=O)(=O)c1c(C)cc(OC)c(C)c1C (stereo not drawn) [Example 176, N-(4-((dimethylamino)(3-fluorophenyl)methyl)cyclohexyl)-2-(2-(N-ethyl-4-methoxy-2,3,6-trimethylphenylsulfonamido)ethoxy)acetamide] | 64 | 90
